PMC10051393, “Spectroscopic and Theoretical Analysis of the Interaction between Plasma Proteins and Phthalimide Analogs with Potential Medical Application” (Life, 2023)

Key:
[1] = target: T1, bovine serum albumin (BSA) (Bos taurus, UniProt P02769); test: intrinsic Trp fluorescence quenching, excitation […] nm; format: binding; details: 297 K, pH 7.4, phosphate buffer, 1.0 μM protein, no site marker; double-log
T1 construct: gene ALB; native commercial protein (Sigma-Aldrich), untagged mature serum albumin

[2] = tested on: T2, α1-acid glycoprotein (AAG); orosomucoid; test: as above; format: binding; details: 297 K, pH 7.4, phosphate buffer, 1.0 μM protein; double-log
T2 construct: gene ORM1; native commercial plasma glycoprotein (Sigma-Aldrich); ORM1 is the main plasma form

T1 sequence (P02769 25-607): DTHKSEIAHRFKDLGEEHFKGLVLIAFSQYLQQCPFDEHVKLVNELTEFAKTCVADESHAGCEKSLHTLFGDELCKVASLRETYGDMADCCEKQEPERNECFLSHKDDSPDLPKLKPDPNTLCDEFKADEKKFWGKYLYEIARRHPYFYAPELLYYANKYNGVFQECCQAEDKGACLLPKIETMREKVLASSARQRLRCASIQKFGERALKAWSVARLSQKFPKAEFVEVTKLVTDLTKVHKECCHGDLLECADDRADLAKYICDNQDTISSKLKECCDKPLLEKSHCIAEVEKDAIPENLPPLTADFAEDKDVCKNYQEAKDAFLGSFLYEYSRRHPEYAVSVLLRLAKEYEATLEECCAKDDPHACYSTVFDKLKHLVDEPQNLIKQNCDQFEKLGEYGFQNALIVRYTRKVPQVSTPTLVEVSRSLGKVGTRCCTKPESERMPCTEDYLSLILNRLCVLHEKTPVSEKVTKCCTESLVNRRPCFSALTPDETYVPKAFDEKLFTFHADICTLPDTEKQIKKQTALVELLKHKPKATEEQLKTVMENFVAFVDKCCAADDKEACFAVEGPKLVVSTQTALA

SMILES	Binding Parameters / Kb × 10^4 [L.mol^-1] [1]	Binding Parameters / Kb × 10^3 [L.mol^-1] [2]
O=C1c2ccccc2C(=O)N1CN1CCN(c2ccccc2)CC1 [A, compound A]	1.89 × 10^4 L·mol^−1	4.27 × 10^3 L·mol^−1
COc1ccccc1N1CCN(CN2C(=O)c3ccccc3C2=O)CC1 [B, compound B]	2.01 × 10^4 L·mol^−1	1.86 × 10^3 L·mol^−1
O=C1c2ccccc2C(=O)N1CN1CCN(c2cccc(C(F)(F)F)c2)CC1 [C, compound C]	43.61 × 10^4 L·mol^−1	1.48 × 10^3 L·mol^−1
O=C1c2ccccc2C(=O)N1CN1CCN(C(c2ccccc2)c2ccccc2)CC1 [D, compound D]	11.72 × 10^4 L·mol^−1	2.09 × 10^3 L·mol^−1
